Patent US20090023773A1, “COMPOSITIONS AND METHODS FOR MODULATING GATED ION CHANNELS” (PainCeptor Pharma Corporation, priority 2007, published 2009)

Experiments:
[1] = target: T1, hASIC2a/3 steady state (window) current (Homo sapiens, UniProt Q16515+Q9UHC3); test: ASIC2a/3 assay, automated two-electrode voltage clamp in oocytes microinjected with hASIC2a and hASIC3 (Example 2); type: cell-based; conditions: 50 μM, perfusion at pH 6.5; FIG. 8
T1 construct: expressed in transfected cells; host or cells: Xenopus laevis oocytes, cRNA microinjection, 1:1 mass ratio
T1 sequence (Q16515 1-512): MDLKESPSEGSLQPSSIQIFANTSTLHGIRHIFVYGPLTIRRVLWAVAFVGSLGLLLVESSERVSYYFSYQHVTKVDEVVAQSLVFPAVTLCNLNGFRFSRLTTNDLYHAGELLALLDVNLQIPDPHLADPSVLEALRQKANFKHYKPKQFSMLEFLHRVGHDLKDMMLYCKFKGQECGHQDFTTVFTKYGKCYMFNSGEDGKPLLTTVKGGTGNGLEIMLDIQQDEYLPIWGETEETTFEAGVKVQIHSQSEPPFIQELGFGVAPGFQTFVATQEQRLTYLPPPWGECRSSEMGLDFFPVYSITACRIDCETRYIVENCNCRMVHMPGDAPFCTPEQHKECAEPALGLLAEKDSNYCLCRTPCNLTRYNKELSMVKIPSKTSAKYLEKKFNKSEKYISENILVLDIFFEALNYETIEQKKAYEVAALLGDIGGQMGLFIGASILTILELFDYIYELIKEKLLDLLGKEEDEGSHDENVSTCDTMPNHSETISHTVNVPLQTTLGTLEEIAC
T1 sequence (Q9UHC3 1-531): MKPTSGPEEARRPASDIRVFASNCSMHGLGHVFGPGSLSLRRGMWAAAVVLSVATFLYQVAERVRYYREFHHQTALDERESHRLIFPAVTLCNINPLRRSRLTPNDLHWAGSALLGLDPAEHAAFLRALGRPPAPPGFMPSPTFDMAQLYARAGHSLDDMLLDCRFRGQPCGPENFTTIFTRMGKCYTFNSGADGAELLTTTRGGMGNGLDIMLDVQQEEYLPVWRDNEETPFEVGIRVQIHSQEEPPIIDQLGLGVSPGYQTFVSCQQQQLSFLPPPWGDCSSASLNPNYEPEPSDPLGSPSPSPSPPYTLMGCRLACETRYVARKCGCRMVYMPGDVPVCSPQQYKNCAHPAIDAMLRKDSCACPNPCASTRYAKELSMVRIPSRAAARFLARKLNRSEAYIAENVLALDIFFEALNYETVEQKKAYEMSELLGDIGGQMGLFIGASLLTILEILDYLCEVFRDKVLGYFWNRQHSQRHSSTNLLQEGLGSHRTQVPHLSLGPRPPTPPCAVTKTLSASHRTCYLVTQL
Method: The ASIC2a/3 assay involves methods and procedures commonly in use and have been extensively described in the literature.
Briefly, a mature female frog is placed on its back after anesthesia, 20 min in 0.1% (w/v) Tricaine (Sigma), and incision is made on the lower abdomen through the skin, muscle and into the peritoneum. Lobes of ovaries are pulled out with forceps, cut and placed in a solution of Ca^2+-free Barth's with 1% (w/v) collagenase Type I (Sigma) added, for 90 minutes. The dissociated eggs are then washed with complete Barth's, supplementd with […] Gentamycin.
Plasmids containing cDNA for ASIC2a+ASIC3 are linearized and used for cRNA synthesis. The synthesis is done according to the protocol insert of the synthesis kit (e.g. Message Machine, Ambion). The final resuspension of the cRNA is made to provide a concentration of 1 μg/μL. The cDNA's for hASIC2a and hASIC3 are mixed with a 1:1 mass ratio and injected at […] per oocyte. Micro-injected oocytes start expressing hASIC2a3 specific current after 24 h.
The oocytes micro-injected with hASIC2a and hASIC3 cRNA's are placed in the recording chambers of the automated rig and then impaled with the voltage and current micro-electrodes. […] The voltage and current for each oocyte is recorded in one pass during both applications for later analysis. […]

[2] = target: T2, recombinant homomeric hASIC1a channels (Homo sapiens, UniProt P78348); test: Two-electrode voltage clamp in Xenopus laevis oocytes expressing gated ion channels (Example 4); type: cell-based
T2 construct: expressed in transfected cells; host or cells: Xenopus laevis oocytes (nuclear microinjection of expression vector such as pcDNA3)
T2 sequence (P78348 1-528): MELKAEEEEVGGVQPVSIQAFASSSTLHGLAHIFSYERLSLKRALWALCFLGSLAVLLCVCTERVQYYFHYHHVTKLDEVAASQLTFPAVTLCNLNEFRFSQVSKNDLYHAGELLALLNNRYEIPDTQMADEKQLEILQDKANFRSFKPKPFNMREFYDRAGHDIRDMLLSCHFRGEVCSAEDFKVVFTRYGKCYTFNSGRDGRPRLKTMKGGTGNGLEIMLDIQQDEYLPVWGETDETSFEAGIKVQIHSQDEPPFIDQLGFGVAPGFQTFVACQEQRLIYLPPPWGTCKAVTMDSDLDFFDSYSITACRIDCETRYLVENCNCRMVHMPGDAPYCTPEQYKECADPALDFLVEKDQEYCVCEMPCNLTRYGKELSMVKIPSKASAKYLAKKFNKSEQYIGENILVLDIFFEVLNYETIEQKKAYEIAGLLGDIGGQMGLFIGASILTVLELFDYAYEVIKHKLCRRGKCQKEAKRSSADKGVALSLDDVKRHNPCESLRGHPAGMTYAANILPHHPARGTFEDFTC

Structure (SMILES) | inhibition of the ASIC 2a/3 current [1] | IC50 ([2]; Table 1, generated using oocytes as in Example 4) [µM] | reduction in the current evoked by a mild pH stimulation ([2]; acid-induced inward currents in oocytes injected with hASIC1a cDNA, FIGS. 2A-2C)
Cc1ccc(-c2nc(Nc3ccc(C(=O)O)cc3)c3cc(Cl)ccc3n2)cc1 [Compound 124] | specific inhibition | – | –
Cc1cc(OC2CCN(Cc3ccccc3)CC2)c2cc(O)ccc2n1 [Compound 13, 4-(1-benzylpiperidin-4-yloxy)-2-methylquinolin-6-ol] | – | 0.1 to 10 | clear dose-dependent reduction
